Measured values published in paper PMC9200067 (Clinical and Translational Science, 2022).

Tests used:
Test in all cases: competitive radioligand binding, recombinant cells
Format in all cases: cell-based
[1] = molecular target: T1, α1D (Homo sapiens, UniProt P25100)
T1 sequence (P25100 1-572): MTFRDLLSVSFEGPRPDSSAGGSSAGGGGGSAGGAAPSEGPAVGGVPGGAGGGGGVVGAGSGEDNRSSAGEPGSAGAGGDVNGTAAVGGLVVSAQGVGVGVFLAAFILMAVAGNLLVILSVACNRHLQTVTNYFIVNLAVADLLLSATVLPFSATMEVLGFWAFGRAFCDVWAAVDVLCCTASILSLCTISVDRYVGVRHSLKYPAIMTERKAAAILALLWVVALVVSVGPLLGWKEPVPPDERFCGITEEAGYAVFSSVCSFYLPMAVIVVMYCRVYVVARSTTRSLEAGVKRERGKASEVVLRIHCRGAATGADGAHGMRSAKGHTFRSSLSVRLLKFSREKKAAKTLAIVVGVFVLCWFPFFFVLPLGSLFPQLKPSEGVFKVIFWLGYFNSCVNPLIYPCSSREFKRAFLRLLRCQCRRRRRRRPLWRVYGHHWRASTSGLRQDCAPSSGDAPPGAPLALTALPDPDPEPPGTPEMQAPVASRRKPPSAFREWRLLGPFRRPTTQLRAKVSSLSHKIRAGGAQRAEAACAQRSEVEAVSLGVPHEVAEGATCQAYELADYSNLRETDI

[2] = molecular target: T2, α1B (Homo sapiens, UniProt P35368)
T2 sequence (P35368 1-520): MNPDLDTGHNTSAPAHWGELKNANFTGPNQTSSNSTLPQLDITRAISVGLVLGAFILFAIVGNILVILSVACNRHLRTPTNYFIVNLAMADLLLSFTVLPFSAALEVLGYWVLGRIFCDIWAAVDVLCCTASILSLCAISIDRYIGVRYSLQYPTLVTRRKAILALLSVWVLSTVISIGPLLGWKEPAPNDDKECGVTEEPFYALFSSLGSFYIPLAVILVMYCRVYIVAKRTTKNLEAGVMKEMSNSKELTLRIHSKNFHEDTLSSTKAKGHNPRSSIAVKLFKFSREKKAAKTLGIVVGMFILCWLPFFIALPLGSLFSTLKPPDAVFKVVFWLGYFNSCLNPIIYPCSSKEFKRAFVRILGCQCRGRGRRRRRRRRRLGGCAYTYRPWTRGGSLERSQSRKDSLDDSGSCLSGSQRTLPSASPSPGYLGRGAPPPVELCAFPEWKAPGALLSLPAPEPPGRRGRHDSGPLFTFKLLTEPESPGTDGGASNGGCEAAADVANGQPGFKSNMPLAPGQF

[3] = molecular target: σ1 (Homo sapiens, UniProt Q99720)
Sequence of σ1 (Q99720 whole entry): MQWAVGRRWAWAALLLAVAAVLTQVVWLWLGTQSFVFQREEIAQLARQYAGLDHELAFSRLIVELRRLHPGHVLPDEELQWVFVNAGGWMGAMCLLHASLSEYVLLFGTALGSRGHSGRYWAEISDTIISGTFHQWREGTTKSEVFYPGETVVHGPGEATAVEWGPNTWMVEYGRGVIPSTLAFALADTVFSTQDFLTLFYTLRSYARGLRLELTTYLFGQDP

[4] = molecular target: 5-HT4 (Homo sapiens, UniProt Q13639)
Sequence of 5-HT4 (Q13639 whole entry): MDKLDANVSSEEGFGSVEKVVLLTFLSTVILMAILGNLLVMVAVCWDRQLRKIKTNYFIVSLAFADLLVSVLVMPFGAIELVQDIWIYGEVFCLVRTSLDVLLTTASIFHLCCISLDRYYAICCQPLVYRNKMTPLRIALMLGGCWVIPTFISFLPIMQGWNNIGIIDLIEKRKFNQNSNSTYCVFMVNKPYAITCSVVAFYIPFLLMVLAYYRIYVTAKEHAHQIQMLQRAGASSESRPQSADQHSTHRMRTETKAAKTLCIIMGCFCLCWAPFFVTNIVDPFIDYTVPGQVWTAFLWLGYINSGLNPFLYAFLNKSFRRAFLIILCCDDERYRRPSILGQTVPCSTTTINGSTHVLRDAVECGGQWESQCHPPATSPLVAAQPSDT

- Ki [1]: 0.027 µM
- Ki [2]: 0.015 µM
- Ki [3]: 3.98 µM
- Ki [4]: 10 µM
SMILES: O=c1n(CCCN2CCN(c3cccc(Cl)c3)CC2)nc2ccccn12 [trazodone]
